Counter-ions that a name gives are not always drawn.

The first test relates to male C57BL/6 mice. Briefly: 55° C. warm-water tail-flick test (antinociception). The conditions noted are these: Mus musculus, sc, 0.5 h, compounds of Table I; s.c.; 30 min; 55° C. water; configuration tested as in Table II; read-out: ED50 (mg/kg) at 30 min on C57BL/6 mice in Warm-water Tail-flick Test. The format is in vivo. The method, then:
Antinociception was assessed using the 55° C. warm-water tail-flick test. The latency to the first sign of a rapid tail flick was taken as the behavioral endpoint. Each mouse was first tested for baseline latency by immersing its tail in the water and recording the time to response. Mice not responding within 2 secs were excluded from further testing. Responsive mice were then s.c. administered the test compound and tested for antinociception at 30 min, 60 min, 90 min, and 120 min time points afterward. Antinociception was calculated using the following formula: percentage of antinociception=100×(test latency−control latency)/(20−control latency).
The following new compounds were also made and tested to determine the half maximal possible effective dose, or ED50 (mg/kg), in mice, using one of: the warm water tail-flick test as in Table II, spared nerve injury, chronic constriction injury, or Complete Freund's adjuvant induced inflammatory pain. The symbols in the last column are: + indicates ED 50>50 mg/kg; ++ indicates ED 50 is less than or equal to 30 mg/kg.
`Cc1ccc(C(C)(C)N2CCC(CCc3ccc(F)s3)(c3nccn3C)C2)cn1` (single isomer, unassigned) [Compound 114]: the ED50 is at most 30 mg/kg.
Same read-out and setting: for `Cc1ccc(C(C)(C)N2CCC(CCc3ccc(F)s3)(C(NS(C)(=O)=O)c3ccccn3)C2)cn1` (single isomer, unassigned) [Compound 319] the value was at most 30 mg/kg; for `Cc1ccc(C(C)(C)N2CCC(CCc3cccs3)(c3nnc(C)s3)C2)cn1` (single isomer, unassigned) [Compound 24], at most 30 mg/kg.
Still for that read-out and setting: for `Cc1ccc(C(C)(C)N2CCC(CCc3ccc(F)s3)(CNS(=O)(=O)C(C)C)C2)cn1` (single isomer, unassigned) [Compound 320] the value was at most 30 mg/kg.
The same measure, in the same setting: for `Cc1ccc(C(C)(C)N2CCC(CCc3cccs3)(C3OCCc4ccccc43)C2)cn1` (single isomer, unassigned) [Compound 87, 5-(2-((R or S)-3-((S or R)-isochroman-1-yl)-3-(2-(thiophen-2-yl)ethyl)pyrrolidin-1-yl)propan-2-yl)-2-methylpyridine citrate] the value was at most 30 mg/kg; for `Cc1ccc(C(C)(C)N2CCC(CCc3ccc(F)s3)(C3OCCc4ccccc43)C2)cn1` (single isomer, unassigned) [Compound 94, 5-(2-((R or S)-3-(2-(5-fluorothiophen-2-yl)ethyl)-3-((R or S)-isochroman-1-yl)pyrrolidin-1-yl)propan-2-yl)-2-methylpyridine citrate], at most 30 mg/kg.

Staying with this test, now noted: Mus musculus; half maximal effective dose in mice; using one of: warm water tail-flick test, spared nerve injury, chronic constriction injury, or Complete Freund's adjuvant induced inflammatory pain (not stated which per compound); read-out: Biological Activity (ED50).
As for `COc1cccc(C(C)(C)N2CC[C@@](CCc3ccc(C#N)cc3)(C(=O)O)C2)c1` [Compound 143, (R)-3-(4-cyanophenethyl)-1-(2-(3-methoxyphenyl)propan-2-yl)pyrrolidine-3-carboxylic acid], the ED50 was over 50 mg/kg.
The same measure, in the same setting: for `CC(C)(c1ccccn1)N1CC[C@@](CCc2ccc(C#N)cc2)(c2ncc(C(F)(F)F)[nH]2)C1` [Compound 108, (R)-4-(2-(1-(2-(pyridin-2-yl)propan-2-yl)-3-(5-(trifluoromethyl)-1H-imidazol-2-yl)pyrrolidin-3-yl)ethyl) benzonitrile] the value was over 50 mg/kg.
On the same count and under the same terms, for `COc1cccc(C(C)(C)N2CC[C@@](CCc3ccc(C#N)cc3)(C(N)=O)C2)n1` [Compound 159, (R)-3-(4-cyanophenethyl)-1-(2-(6-methoxypyridin-2-yl)propan-2-yl)pyrrolidine-3-carboxamide] the value was at most 30 mg/kg; for `CC(O)[C@@]1(CCc2ccc(C#N)cc2)CCN(C(c2ccc(F)cc2)c2cccnc2)C1` (single isomer, unassigned) [Compound 58], over 50 mg/kg.
Still for that read-out and setting: for `CC(C)(c1ccccn1)N1CC[C@@](CCc2ccc(C#N)cc2)(C(O)(C(F)(F)F)C(F)(F)F)C1` [Compound 119, (R)-4-(2-(3-(1,1,1,3,3,3-hexafluoro-2-hydroxypropan-2-yl)-1-(2-(pyridin-2-yl)propan-2-yl)pyrrolidin-3-yl)ethyl) benzonitrile] the value was over 50 mg/kg; for `CCOC[C@]1(CCc2ccc(F)cc2)CCN(Cc2cccnc2C(N)=O)C1` [Compound 5], over 50 mg/kg.
On to `CC(C)(c1ccccn1)N1CC[C@@](CCc2ccc3nonc3c2)(COCc2ccccc2)C1` [Compound 163, (R)-5-(2-(3-((benzyloxy)methyl)-1-(2-(pyridin-2-yl)propan-2-yl)pyrrolidin-3-yl)ethyl)benzo[c] [1,2,5]oxadiazole], for which the ED50 is over 50 mg/kg.
Same read-out and setting: for `CC(C)c1nc(C(C)(C)N2CC[C@@](CCc3ccc(S(C)(=O)=O)cc3)(C3CCCO3)C2)cs1` (single isomer, unassigned) [Compound 29, 2-isopropyl-4-(2-((R)-3-(4-(methylsulfonyl)phenethyl)-3-((R or S)-tetrahydrofuran-2-yl)pyrrolidin-1-yl)propan-2-yl)thiazole] the value was at most 30 mg/kg.
The same measure, in the same setting: for `CC(C)(c1ccccn1)N1CC[C@@](CCc2ccc3ccoc3c2)(C(O)C(F)(F)F)C1` (single isomer, unassigned) [Compound 172, (R or S)-1-((R)-3-(2-(benzofuran-6-yl)ethyl)-1-(2-(pyridin-2-yl)propan-2-yl)pyrrolidin-3-yl)-2,2,2-trifluoroethan-1-ol] the value was over 50 mg/kg; for `CC(C)(c1ccccn1)N1CC[C@](CO)(CCc2ccc3ccoc3c2)C1` [Compound 168, (R)-(3-(2-(benzofuran-6-yl)ethyl)-1-(2-(pyridin-2-yl)propan-2-yl)pyrrolidin-3-yl)methanol], at most 30 mg/kg.
Same read-out and setting: for `CC(O)[C@]1(CCc2ccc(C#N)cc2)CCN(C(C)(C)c2ccc(C(F)(F)F)nc2)C1` (single isomer, unassigned) [Compound 214, 4-(2-((R)-3-((R or S)-1-hydroxyethyl)-1-(2-(6-(trifluoromethyl)pyridin-3-yl)propan-2-yl)pyrrolidin-3-yl)ethyl) benzonitrile] the value was at most 30 mg/kg.
As to `CSc1ccc(C(C)(C)N2CC[C@@](CCc3ccc(F)cc3)(COCc3ccccc3)C2)cc1` [Compound 40, (R)-3-((benzyloxy)methyl)-3-(4-fluorophenethyl)-1-(2-(4-(methylthio)phenyl)propan-2-yl)pyrrolidine], the ED50 was over 50 mg/kg.
On the same count and under the same terms, for `CC(O)[C@]1(CCc2ccc(S(C)(=O)=O)cc2)CCN(C(C)(C)c2ccc(Cl)cc2)C1` (single isomer, unassigned) [Compound 219, (R or S)-1-((R)-1-(2-(4-chlorophenyl)propan-2-yl)-3-(4-(methylsulfonyl)phenethyl)pyrrolidin-3-yl)ethan-1-ol] the value was over 50 mg/kg; for `CC(C)(c1ccccn1)N1CC[C@@](CCc2ccc(C#N)cc2)(C(=O)Nc2ccc(F)cn2)C1` [Compound 207, (R)-3-(4-cyanophenethyl)-N-(5-fluoropyridin-2-yl)-1-(2-(pyridin-2-yl)propan-2-yl)pyrrolidine-3-carboxamide], at most 30 mg/kg; for `CC(C)(c1ccccn1)N1CC[C@@](CCc2ccc(C#N)cc2)(C(C)(C)O)C1` [(R)-4-(2-(3-(2-hydroxypropan-2-yl)-1-(2-(pyridin-2-yl)propan-2-yl)pyrrolidin-3-yl)ethyl) benzonitrile], over 50 mg/kg.
On the same count and under the same terms, for `CCOC(C(F)(F)F)(C(F)(F)F)[C@]1(/C=C/c2ccc3nonc3c2)CCN(C(C)(C)c2ccc(C)nc2)C1` [Compound 186, (S,E)-5-(2-(3-(2-ethoxy-1,1,1,3,3,3-hexafluoropropan-2-yl)-1-(2-(6-methylpyridin-3-yl)propan-2-yl)pyrrolidin-3-yl)vinyl)benzo[c] [1,2,5]oxadiazole] the value was at most 30 mg/kg; for `CCOC(C(F)(F)F)(C(F)(F)F)[C@]1(CCc2ccc(C#N)cc2)CCN(C(C)(C)c2ccns2)C1` [Compound 22, (R)-4-(2-(3-(2-ethoxy-1,1,1,3,3,3-hexafluoropropan-2-yl)-1-(2-(isothiazol-5-yl)propan-2-yl)pyrrolidin-3-yl)ethyl) benzonitrile], at most 30 mg/kg; for `CC(C)(c1ccc(S(C)(=O)=O)cc1)N1CC[C@@](CCc2ccc(F)cc2)(C(O)C(F)(F)F)C1` (single isomer, unassigned) [Compound 50], over 50 mg/kg.
In the case of `CCOC[C@@]1(CCc2ccc(S(C)(=O)=O)cc2)CCN(C(C)(C)c2ccccc2)C1` [Compound 200, (S)-3-(ethoxymethyl)-3-(4-(methylsulfonyl)phenethyl)-1-(2-phenylpropan-2-yl)pyrrolidine], the ED50 was at most 30 mg/kg.
